# Laboratory results published in ChEMBL document CHEMBL1201862, “PubChem BioAssay data set” (2004).
# Activity calls are given as the source filed them.
# Experiments:
# [1] = target: T1, Oxysterols receptor LXR-beta (Homo sapiens, UniProt P55055); format: functional, cell-based;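 also: Cell-based luminescence dose-response assay of agonist activity at LXR, run as a confirmatory counterscreen to a daf-12 agonist screen; HEK293 cells with Gal4-LXR fusion and GAL4-driven luciferase reporter; agonist potency from rising luciferase signal of a Gal4-LXR reporter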
# T1 sequence (P55055 whole entry): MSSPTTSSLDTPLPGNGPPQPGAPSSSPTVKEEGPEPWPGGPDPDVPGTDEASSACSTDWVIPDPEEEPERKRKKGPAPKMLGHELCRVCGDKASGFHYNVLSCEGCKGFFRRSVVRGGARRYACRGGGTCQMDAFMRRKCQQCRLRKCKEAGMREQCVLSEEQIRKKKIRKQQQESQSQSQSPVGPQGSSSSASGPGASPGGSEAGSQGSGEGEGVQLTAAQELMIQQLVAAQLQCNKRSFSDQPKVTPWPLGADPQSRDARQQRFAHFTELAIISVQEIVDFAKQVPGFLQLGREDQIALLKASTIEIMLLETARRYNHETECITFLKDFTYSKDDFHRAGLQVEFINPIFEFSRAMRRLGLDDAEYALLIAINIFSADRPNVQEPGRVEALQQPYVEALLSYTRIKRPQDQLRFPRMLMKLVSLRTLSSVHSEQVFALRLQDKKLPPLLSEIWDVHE
# Vero = assay: viability of Vero cells under compound – cytotoxicity control for flavivirus capping enzyme inhibitors (AID 588742); format: functional; settings: Chlorocebus sabaeus
# Aminopeptidase N = target: T2, Aminopeptidase N (Plasmodium falciparum FcB1/Columbia, UniProt O96935); assay: malaria alanyl aminopeptidase activity blockers – biochemical, fluorogenic H-Leu-NHMec substrate, 1536-well (AID 1445); design: species or system Plasmodium falciparum 3D7, 3D7
# T2 sequence (O96935 whole entry): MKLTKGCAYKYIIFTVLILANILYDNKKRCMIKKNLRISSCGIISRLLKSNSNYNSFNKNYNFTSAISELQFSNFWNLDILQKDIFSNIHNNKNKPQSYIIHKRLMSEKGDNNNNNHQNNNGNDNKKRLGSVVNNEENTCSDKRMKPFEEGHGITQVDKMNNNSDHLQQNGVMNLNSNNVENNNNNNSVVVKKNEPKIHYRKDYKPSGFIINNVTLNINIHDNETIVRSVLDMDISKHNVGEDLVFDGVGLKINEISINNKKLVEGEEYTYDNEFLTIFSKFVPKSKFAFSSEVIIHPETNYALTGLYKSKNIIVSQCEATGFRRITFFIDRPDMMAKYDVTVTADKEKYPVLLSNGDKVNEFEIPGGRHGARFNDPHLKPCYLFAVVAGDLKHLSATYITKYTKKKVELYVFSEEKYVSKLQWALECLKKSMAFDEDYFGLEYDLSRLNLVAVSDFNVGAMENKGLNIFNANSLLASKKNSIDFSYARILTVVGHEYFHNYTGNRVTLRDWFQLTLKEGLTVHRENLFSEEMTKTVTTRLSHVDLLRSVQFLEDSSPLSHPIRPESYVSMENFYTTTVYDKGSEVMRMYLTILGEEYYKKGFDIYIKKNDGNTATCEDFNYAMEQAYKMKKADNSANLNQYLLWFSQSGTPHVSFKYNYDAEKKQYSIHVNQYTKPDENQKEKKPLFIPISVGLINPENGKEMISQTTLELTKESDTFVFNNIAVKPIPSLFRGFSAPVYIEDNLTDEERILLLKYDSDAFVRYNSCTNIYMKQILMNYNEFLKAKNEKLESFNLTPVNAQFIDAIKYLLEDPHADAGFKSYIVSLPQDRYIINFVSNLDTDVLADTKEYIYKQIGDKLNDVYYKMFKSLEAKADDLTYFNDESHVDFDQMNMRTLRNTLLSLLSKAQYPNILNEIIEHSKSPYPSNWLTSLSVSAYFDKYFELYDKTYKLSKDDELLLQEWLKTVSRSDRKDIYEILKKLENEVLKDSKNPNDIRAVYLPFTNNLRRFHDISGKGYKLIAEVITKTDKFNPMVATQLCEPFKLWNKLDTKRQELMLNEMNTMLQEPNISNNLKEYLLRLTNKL
# [2] = target: T3, Corticotropin-releasing factor receptor 2/Corticotropin-releasing factor-binding protein (Homo sapiens, UniProt P24387+Q13324); assay: activators of CRF receptor 2 with binding protein – uHTS hits, confirmation (AID 602473); format: functional; settings: read-out: EC50_Mean
# T3 sequence (Q13324 whole entry): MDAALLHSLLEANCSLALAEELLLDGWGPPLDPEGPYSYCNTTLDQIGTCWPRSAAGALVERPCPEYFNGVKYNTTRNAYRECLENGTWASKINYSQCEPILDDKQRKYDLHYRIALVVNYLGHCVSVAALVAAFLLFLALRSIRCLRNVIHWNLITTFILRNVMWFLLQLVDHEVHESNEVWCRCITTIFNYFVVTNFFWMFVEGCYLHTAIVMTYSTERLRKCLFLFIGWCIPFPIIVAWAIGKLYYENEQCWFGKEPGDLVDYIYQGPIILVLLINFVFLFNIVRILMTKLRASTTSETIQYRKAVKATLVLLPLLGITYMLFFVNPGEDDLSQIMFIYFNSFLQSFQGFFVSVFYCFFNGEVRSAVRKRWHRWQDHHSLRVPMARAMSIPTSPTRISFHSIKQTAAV
# T3 sequence (P24387 whole entry): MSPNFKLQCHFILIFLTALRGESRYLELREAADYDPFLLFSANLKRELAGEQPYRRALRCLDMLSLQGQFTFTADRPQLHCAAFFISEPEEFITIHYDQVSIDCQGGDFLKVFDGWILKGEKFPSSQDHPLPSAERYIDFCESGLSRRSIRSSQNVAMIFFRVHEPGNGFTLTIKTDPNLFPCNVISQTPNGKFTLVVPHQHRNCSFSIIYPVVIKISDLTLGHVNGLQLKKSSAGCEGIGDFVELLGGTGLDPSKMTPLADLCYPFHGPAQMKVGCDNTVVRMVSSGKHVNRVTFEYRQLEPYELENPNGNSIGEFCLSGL
# [3] = target: T4, Short transient receptor potential channel 4 (Mus musculus, UniProt Q9QUQ5); assay: block of DAMGO-driven TRPC4 calcium entry – cell-based, HEK293 TRPC4/mu-opioid, Fluo-4 calcium, dose response (AID 434942); format: functional;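 also: potency of inhibitors blocking the TRPC4 calcium response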
# T4 sequence (Q9QUQ5 whole entry): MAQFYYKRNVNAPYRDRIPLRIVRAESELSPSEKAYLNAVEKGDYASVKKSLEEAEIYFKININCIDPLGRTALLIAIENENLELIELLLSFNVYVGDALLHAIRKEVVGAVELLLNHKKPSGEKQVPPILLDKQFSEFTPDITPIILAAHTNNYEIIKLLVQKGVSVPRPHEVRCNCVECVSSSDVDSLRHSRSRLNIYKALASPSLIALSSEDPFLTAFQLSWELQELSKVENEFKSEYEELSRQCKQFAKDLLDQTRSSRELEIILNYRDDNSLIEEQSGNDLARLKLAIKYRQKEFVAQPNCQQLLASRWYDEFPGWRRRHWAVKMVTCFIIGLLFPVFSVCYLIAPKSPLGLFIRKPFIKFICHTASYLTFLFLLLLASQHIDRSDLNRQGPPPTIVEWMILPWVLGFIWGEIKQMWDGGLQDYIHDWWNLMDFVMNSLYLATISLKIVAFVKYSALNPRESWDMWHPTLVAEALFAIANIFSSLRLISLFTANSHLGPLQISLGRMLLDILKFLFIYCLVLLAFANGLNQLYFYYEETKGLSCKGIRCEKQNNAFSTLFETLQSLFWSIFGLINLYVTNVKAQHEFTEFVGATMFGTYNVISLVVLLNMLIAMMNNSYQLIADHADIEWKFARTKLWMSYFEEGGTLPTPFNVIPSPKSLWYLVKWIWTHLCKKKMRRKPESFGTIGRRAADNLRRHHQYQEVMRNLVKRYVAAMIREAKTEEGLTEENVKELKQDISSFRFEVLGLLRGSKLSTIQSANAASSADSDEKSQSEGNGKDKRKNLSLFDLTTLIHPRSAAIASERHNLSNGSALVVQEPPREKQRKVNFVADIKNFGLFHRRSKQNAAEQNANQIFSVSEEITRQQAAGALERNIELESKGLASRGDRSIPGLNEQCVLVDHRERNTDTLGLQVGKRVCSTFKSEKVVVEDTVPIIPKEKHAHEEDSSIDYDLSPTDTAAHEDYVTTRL
# [4] = blockers of CRF-binding protein–CRF-R2 complex – cell-based, uHTS hits, 384-well, dose response (AID 651639); format: functional, Homo sapiens; settings: read-out: IC50_Mean
# Genome polyprotein = Genome polyprotein (dengue virus type 2, UniProt P29990); assay: flavivirus cap methylation enzyme inhibition – biochemical, confirmation dose response, primary screen (AID 588689); format: functional
# [5] = target: T3, Corticotropin-releasing factor receptor 2/Corticotropin-releasing factor-binding protein; assay: Dose Response confirmation of uHTS hits for small molecule antagonists of the CRF-binding protein and CRF-R2 receptor complex.; format: functional; settings: read-out: IC50_Mean
# [6] = target: Potassium channel subfamily K member 9 (Homo sapiens, UniProt Q9NPC2); assay: KCNK9 flux blockade, concentration-response – cell-based, FluxOR thallium flux, selectivity assay for TASK1 inhibitor project, SAR follow-up (AID 652211); format: functional;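 also: potency is for inhibitors of the channel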
# [7] = blockade of melanocortin 4 receptor signaling – cell-based, plate reader, cherry pick, counter-screen for LGR2 antagonist project, dose response (AID 743444); format: functional;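 also: transfected HEK 293 cells stimulated with alpha-MSH peptide; potency of inhibitors of the alpha-MSH evoked signal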
# [8] = toxicity toward HepG2 liver cells – cell-based, plate reader, cherry-pick, antagonist series, cytotoxicity control, dose response (AID 743416); format: functional
# [9] = blockers of bursicon-stimulated LGR2 cAMP reporter – cell-based, HEK293, CRE-luciferase reporter, cherry pick, set 2, dose response (AID 743343); format: functional;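 also: transfected cells were stimulated with diluted bursicon conditioned medium after compound addition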
# [10] = viability loss in HEK293 cells – cell-based, plate reader, cherry-picked samples, cytotoxicity control, dose response (AID 743446); format: functional
# [11] = A549 cell cytotoxicity, dose response, cytotoxicity control, plate reader, cherry-pick, antagonist series (AID 743412); format: functional, cell-based
# [12] = target: T5, ATP-dependent translocase ABCB1 (Homo sapiens, UniProt P08183); assay: inhibition of BCRP-mediated JC-1 efflux – Ig-MXP3 cells, flow cytometry, set 2, dose response (AID 504566); format: functional; settings: read-out: EC50_MICROM_;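 also: flow cytometry median green fluorescence of retained JC-1 dye; potency of efflux pump inhibition measured as rising substrate retention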
# [13] = target: T5, ATP-dependent translocase ABCB1; assay: P-gp JC-1 efflux blockade concentration-response – Jurkat-DNR cells, flow cytometry, set 2, dose response (AID 504569); format: functional; settings: read-out: EC50_MICROM_;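 also: potency of pump inhibitors that raise cellular JC-1 green fluorescence up to the nicardipine level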
# HEK293 = assay: EBV LMP1 TES2 canonical NF-kB signalling blockers – cell-based, HEK293, luciferase, cherry-pick, dose response (AID 588343); format: functional; settings: Homo sapiens
# [14] = target: Luciferin 4-monooxygenase (Photinus pyralis, UniProt P08659); assay: Counter Screen for Luciferase-based Assay Positives. [Related pubchem assays: 620, 618, 411 ]
# Protein skinhead-1 = target: T6, Protein skinhead-1 (Caenorhabditis elegans, UniProt P34707); format: functional
# T6 sequence (P34707 whole entry): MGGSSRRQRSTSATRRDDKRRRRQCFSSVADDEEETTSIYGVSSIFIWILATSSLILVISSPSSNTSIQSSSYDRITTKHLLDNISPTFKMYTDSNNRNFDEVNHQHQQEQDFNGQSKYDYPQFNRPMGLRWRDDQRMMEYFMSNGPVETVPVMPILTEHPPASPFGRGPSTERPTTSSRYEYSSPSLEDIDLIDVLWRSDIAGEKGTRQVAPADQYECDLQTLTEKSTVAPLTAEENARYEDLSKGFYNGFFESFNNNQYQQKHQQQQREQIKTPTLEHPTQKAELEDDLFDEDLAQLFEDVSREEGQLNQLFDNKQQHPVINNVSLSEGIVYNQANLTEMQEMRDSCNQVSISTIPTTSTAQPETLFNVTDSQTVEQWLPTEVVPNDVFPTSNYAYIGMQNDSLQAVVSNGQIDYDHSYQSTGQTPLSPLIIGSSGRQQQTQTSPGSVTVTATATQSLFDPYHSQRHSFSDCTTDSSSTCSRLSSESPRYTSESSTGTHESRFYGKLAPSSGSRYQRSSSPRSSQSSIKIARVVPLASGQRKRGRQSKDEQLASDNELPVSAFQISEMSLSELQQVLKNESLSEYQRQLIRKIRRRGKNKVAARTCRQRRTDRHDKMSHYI
# HT-1080 = assay: HT1080 cell viability loss – fluorescence readout (AID 620); format: functional, cell-based; settings: Homo sapiens
# Sequence of Potassium channel subfamily K member 9 (Q9NPC2 whole entry): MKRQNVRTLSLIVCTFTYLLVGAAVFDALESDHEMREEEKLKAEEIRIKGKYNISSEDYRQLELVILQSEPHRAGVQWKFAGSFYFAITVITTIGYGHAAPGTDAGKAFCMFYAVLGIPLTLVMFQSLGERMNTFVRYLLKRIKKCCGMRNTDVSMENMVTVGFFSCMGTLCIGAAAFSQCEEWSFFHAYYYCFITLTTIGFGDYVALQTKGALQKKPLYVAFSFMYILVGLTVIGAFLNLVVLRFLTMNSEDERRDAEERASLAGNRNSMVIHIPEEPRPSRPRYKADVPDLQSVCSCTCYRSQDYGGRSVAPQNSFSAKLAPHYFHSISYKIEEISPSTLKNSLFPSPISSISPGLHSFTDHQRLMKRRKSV
# T5 sequence (P08183 whole entry): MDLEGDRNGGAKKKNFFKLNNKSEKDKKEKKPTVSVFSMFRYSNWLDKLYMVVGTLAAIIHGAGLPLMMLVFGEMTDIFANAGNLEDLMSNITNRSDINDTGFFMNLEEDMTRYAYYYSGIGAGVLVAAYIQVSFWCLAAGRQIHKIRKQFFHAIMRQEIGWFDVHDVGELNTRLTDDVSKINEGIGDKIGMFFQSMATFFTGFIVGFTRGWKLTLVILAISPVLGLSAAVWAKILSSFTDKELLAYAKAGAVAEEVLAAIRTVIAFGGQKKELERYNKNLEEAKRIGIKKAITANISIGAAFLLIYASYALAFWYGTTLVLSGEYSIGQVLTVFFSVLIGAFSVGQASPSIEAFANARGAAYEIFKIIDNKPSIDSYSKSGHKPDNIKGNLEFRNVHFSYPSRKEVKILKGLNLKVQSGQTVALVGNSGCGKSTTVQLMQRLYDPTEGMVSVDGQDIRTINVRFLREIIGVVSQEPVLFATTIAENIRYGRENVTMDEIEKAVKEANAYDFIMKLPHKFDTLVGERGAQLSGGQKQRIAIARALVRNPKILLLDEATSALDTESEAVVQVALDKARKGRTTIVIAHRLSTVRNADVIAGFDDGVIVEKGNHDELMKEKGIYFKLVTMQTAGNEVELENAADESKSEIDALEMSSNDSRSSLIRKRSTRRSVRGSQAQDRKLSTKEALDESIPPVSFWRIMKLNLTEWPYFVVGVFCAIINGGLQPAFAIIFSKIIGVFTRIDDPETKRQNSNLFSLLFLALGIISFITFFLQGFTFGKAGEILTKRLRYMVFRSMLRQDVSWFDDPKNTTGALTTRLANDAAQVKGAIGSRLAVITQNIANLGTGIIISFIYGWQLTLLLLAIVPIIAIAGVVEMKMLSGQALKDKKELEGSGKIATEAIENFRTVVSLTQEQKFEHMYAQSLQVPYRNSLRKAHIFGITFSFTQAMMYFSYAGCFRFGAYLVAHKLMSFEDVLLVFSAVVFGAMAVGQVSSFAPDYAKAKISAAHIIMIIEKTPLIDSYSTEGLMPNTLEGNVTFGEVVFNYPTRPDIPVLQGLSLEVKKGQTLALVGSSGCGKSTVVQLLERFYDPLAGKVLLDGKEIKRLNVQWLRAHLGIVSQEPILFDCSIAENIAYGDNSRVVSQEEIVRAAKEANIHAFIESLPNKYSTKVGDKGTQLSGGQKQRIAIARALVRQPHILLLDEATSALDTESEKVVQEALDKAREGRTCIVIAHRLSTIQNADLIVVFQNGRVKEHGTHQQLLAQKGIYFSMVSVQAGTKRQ
# Sequence of Genome polyprotein (P29990 2492-3391 limits assumed): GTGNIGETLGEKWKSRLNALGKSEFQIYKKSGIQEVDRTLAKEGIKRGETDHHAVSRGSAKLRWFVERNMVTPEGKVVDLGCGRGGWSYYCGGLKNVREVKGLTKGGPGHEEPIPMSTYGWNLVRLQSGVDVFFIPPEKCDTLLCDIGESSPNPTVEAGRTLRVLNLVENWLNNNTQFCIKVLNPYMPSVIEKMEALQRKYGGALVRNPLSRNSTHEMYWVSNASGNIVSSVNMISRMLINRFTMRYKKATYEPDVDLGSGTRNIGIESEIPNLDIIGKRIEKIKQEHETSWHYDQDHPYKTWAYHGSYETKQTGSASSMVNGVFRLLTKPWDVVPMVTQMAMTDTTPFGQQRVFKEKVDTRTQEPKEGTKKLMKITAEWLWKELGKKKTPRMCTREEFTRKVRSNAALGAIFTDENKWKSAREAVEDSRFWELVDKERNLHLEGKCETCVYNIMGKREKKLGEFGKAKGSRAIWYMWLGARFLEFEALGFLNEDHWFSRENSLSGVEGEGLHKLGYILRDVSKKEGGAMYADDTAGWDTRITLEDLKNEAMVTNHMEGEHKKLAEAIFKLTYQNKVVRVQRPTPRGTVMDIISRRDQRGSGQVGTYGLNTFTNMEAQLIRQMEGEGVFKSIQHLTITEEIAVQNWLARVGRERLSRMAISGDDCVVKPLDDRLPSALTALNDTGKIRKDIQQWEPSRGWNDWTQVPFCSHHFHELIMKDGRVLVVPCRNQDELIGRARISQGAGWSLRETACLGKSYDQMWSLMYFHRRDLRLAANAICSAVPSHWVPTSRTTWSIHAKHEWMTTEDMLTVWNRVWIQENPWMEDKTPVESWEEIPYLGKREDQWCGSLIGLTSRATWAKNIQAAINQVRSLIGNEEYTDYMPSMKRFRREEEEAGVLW
# Sequence of Luciferin 4-monooxygenase (P08659 whole entry): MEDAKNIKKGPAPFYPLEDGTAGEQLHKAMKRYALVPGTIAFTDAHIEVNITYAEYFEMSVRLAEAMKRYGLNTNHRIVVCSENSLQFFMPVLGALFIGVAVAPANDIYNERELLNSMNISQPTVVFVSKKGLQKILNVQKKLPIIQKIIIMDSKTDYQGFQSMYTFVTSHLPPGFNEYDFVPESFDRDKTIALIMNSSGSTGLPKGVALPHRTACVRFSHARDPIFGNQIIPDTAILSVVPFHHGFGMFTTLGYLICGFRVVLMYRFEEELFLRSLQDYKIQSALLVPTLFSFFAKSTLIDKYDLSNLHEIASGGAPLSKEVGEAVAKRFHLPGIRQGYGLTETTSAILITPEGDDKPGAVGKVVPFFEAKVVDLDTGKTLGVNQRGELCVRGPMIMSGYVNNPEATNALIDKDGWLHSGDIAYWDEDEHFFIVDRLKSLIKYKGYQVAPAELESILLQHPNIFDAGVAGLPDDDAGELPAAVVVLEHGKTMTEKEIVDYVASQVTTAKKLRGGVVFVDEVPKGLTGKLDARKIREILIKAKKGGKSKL
smiles,measurement,setting,value
Brc1ccccc1C1NC(c2ccccc2)=NO1 (stereo not given),EC50,[1],> 67.5 µM (inactive)
same,EC50,cells,> 67.5 µM (inactive)
COc1cc(/C=C2\SC(=S)N(NS(=O)(=O)c3ccc(C)cc3)C2=O)cc(OC)c1OC,CC50,Vero,> 40 µM (active)
same,IC50,Aminopeptidase N,33.1 µM (active)
same,EC50,[2],> 53 µM (inactive)
same,EC50,[3],6.68 µM (active)
same,IC50,[4],10.4 µM (active)
same,IC50,Genome polyprotein,37.4 µM (active)
same,IC50,[5],12.6 µM (active)
COc1ccccc1C(=O)Nc1cccc(NC(=O)c2ccccc2C)c1,IC50,[6],3.49 µM (active)
Cc1cc2ncc(-c3cccs3)nc2cc1C,AC50,[7],4.22 µM (active)
same,AC50,[8],> 52 µM (inactive)
same,AC50,[9],4.64 µM (active)
same,EC50,[1],> 67.6 µM (inactive)
same,EC50,cells,> 67.6 µM (inactive)
same,AC50,[10],49.4 µM (active)
same,AC50,[11],25.7 µM (active)
Cc1nc2cc(-c3cccc(Cl)c3)nn2c(N2CCN(C(=O)c3ccco3)CC2)c1C,EC50,[12],3.41 µM (active)
same,EC50,[13],7.87 µM (active)
COc1ccc(-c2cc3nc(C)c(C)c(N4CCN(C(=O)c5ccsc5)CC4)n3n2)cc1,EC50,[12],1.79 µM (active)
same,EC50,[13],3.83 µM (active)
O=C(c1ccsc1)N1CCN(c2cc(-c3ccccc3)nc3cc(-c4cccc(Cl)c4)nn23)CC1,EC50,[12],1.63 µM (active)
same,EC50,[13],3.4 µM (active)
O=C(Nc1cccc(NC(=O)c2ccccc2C(F)(F)F)c1)c1ccccc1,IC50,[6],7.21 µM (active)
COc1ccccc1C(=O)Nc1cccc(NC(=O)c2ccccc2OC(F)(F)F)c1,IC50,[6],1.17 µM (active)
Brc1ccc(-c2nc(-c3ccccn3)no2)o1,AC50,[7],3.84 µM (active)
same,AC50,HEK293,2.33 µM (active)
same,EC50,[14],2.58 µM (active)
same,AC50,[8],> 52 µM (inactive)
same,AC50,[9],2.92 µM (active)
same,EC50,[1],> 67.5 µM (inactive)
same,IC50,Protein skinhead-1,72.1 µM (inactive)
same,EC50,cells,> 67.5 µM (inactive)
same,AC50,[11],> 52 µM (inactive)
same,EC50,HT-1080,> 50 µM (not active)
